Laboratory results published in the supplement of paper PMC10307832.

Key:
Assay in all cases: relative viability (nuclei count vs DMSO), 5 days (fraction); higher = more cells survive
Kobe2602 + Dasatinib = compound: C1=CC(=CC=C1NC(=S)NNC2=C(C=C(C=C2[N+](=O)[O-])C(F)(F)F)[N+](=O)[O-])F [Kobe2602] + Cc1nc(Nc2ncc(C(=O)Nc3c(C)cccc3Cl)s2)cc(N2CCN(CCO)CC2)n1 [Dasatinib] (partner 0.075 µM)
How it was run: (§1)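 Lung cancer cell lines in 1536-well plates got either a single drug or a fixed anchor-drug dose together with five library-drug doses (not always all listed) in √10 steps, by pin tool, on the day after seeding. Nuclei were counted after 5 days, and relative viability is the treated-to-vehicle ratio of nuclei counts. Values are medians of duplicate plates.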

Zosuquidar + AZD7762 = compound: O[C@@H](COc1cccc2ncccc12)CN1CCN([C@@H]2c3ccccc3[C@@H]3[C@H](c4ccccc42)C3(F)F)CC1 [Zosuquidar] + NC(=O)Nc1cc(-c2cccc(F)c2)sc1C(=O)N[C@H]1CCCNC1 [AZD7762] (partner 0.2 µM)
How it was run: as §1

[1] = compound: COc1cc2nccc(Oc3ccc(NC(=O)C4(C(=O)Nc5ccc(F)cc5)CC4)cc3)c2cc1OC [Cabozantinib] + CC1(C)CCC(c2ccc(Cl)cc2)=C(CN2CCN(c3ccc(C(=O)NS(=O)(=O)c4ccc(N[C@H](CCN5CCOCC5)CSc5ccccc5)c(S(=O)(=O)C(F)(F)F)c4)cc3)CC2)C1 [Navitoclax] (partner 0.5 µM)
How it was run: as §1

[2] = compound: COc1cc2nccc(Oc3ccc(NC(=O)C4(C(=O)Nc5ccc(F)cc5)CC4)cc3)c2cc1OC [Cabozantinib] + CC(=O)c1c(C)c2cnc(Nc3ccc(N4CCNCC4)cn3)nc2n(C2CCCC2)c1=O [Palbociclib] (partner 0.5 µM)
How it was run: as §1

Cell Line	relative viability (Kobe2602 + Dasatinib; first compound 0.2 µM)	relative viability (Kobe2602 + Dasatinib; first compound 0.6325 µM)	relative viability (Kobe2602 + Dasatinib; first compound 2 µM)	relative viability (Kobe2602 + Dasatinib; first compound 6.325 µM)	relative viability (Kobe2602 + Dasatinib; first compound 20 µM)	relative viability (Zosuquidar + AZD7762; first compound 0.01 µM)	relative viability (Zosuquidar + AZD7762; first compound 0.03162 µM)	relative viability (Zosuquidar + AZD7762; first compound 0.1 µM)	relative viability (Zosuquidar + AZD7762; first compound 0.3162 µM)	relative viability (Zosuquidar + AZD7762; first compound 1 µM)	relative viability ([1]; first compound 0.02 µM)	relative viability ([1]; first compound 0.06325 µM)	relative viability ([1]; first compound 0.2 µM)	relative viability ([1]; first compound 0.6325 µM)	relative viability ([1]; first compound 2 µM)	relative viability ([2]; first compound 0.02 µM)	relative viability ([2]; first compound 0.06325 µM)	relative viability ([2]; first compound 0.2 µM)	relative viability ([2]; first compound 0.6325 µM)	relative viability ([2]; first compound 2 µM)
NCI-H1437	0.498	0.431	0.351	0.459	0.615	1.19	1.16	1.14	1.03	1.19	1.2	1.13	1.12	1.13	1.02	0.312	0.339	0.296	0.344	0.302
NCI-H1651	0.596	0.362	0.429	0.402	0.37	0.459	0.476	0.415	0.403	0.384	1.19	1.03	1.15	0.974	0.928	0.512	0.561	0.52	0.495	0.495
NCI-H1666	0.833	0.825	0.777	0.899	0.735	0.852	0.979	0.752	0.826	0.862	0.889	1.16	0.887	0.996	1.13	0.642	0.658	0.664	0.662	0.642
NCI-H1734	0.425	0.543	0.432	0.478	0.468	0.526	0.515	0.563	0.599	0.514	0.8	0.832	0.85	0.818	0.667	0.4	0.339	0.381	0.389	0.325
NCI-H1755	0.408	0.407	0.359	0.408	0.437	0.399	0.461	0.398	0.497	0.436	1	1.07	0.972	0.87	0.807	0.471	0.454	0.461	0.43	0.446
NCI-H1792	0.691	0.949	0.894	0.85	0.787	0.539	0.623	0.5	0.817	1.19	0.59	0.967	0.555	0.637	0.589	–	0.707	0.668	0.679	0.579
NCI-H1793	0.367	0.4	0.361	0.397	0.398	0.519	–	–	0.516	0.692	0.477	0.514	0.267	0.235	0.29	0.338	0.313	–	0.277	0.252
NCI-H1915	0.336	0.338	0.289	0.318	0.341	0.714	0.699	0.613	0.816	0.756	0.778	0.823	0.801	0.732	0.769	0.584	0.57	0.518	0.506	0.55
NCI-H1944	0.255	0.223	0.233	0.213	0.245	0.496	0.565	0.479	0.62	0.511	–	1.08	0.972	0.969	0.921	0.357	0.315	0.317	0.299	0.349
NCI-H1975	0.31	0.371	0.334	0.302	0.23	0.675	0.744	0.661	0.788	0.791	1.25	1.09	1.22	1.01	1.05	0.533	0.777	0.647	0.418	0.557
NCI-H1993	0.575	0.501	0.544	0.532	0.607	0.692	0.781	–	0.858	0.908	0.934	0.901	0.857	0.851	0.991	0.661	0.537	0.461	0.571	0.437
NCI-H2085	0.262	0.261	0.24	0.238	0.23	0.983	1.04	–	1.03	0.99	1.16	1.17	1.15	1.21	1.06	0.519	0.469	0.524	0.476	0.498
NCI-H2087	0.932	0.892	0.747	0.844	0.924	1.22	1.39	1.32	1.41	1.26	1.03	1.1	1.06	0.985	0.981	0.187	0.302	0.273	0.249	0.253
NCI-H2126	0.57	0.557	0.522	0.446	0.475	1.03	1	0.911	1.04	1.01	0.828	0.84	0.869	0.831	0.896	0.315	0.37	0.336	0.364	0.332
NCI-H2170	0.632	0.544	0.496	0.558	0.592	0.866	0.916	0.776	0.898	0.858	0.579	0.611	0.559	0.652	0.62	0.408	0.407	0.355	0.369	0.438
NCI-H2347	0.377	0.282	0.315	0.364	0.414	0.701	0.811	0.564	0.808	0.764	0.83	0.994	0.803	0.612	0.375	0.474	0.466	0.49	0.478	0.401
